This is an account of results in publication PMC8953427, “Enantioselectivity of Pentedrone and Methylone on Metabolic Profiling in 2D and 3D Human Hepatocyte-like Cells” (Pharmaceuticals, 2022).

For orientation: EC50 means the midpoint of the concentration-response curve. What is called pEC50 is the negative decadic logarithm of the EC50, by convention in mol/L.

For one data set, the system named is 2D-HLCs. Put plainly: Metabolite formation in 2D-HLCs by GC-MS. It counts as in vitro ADME, human. The following applies: 1 mM, 6 h. The procedure:
(§1) Regarding the study of methylone and pentedrone metabolite biosynthesis, in 2D-HLCs and 3D-HLCs, at the D17 of the HLCs differentiation, the cells were seeded in 6-well plates in 1 mL of culture medium at a density of 2.0 × 10^5 cells/well and 5.0 × 10^5 cells/well in 2D and 3D cultures, respectively. At D34, 2D-HLCs and 3D-HLCs were exposed to 1 mM of each enantiomer diluted in IMDM. Upon 6 h of incubation, the IMDM was removed and the pellets were quenched with 2 mL of ice-cold acetonitrile and scraped. The quenched solutions were centrifuged for 10 min at 4 °C. After the addition of methcathinone (internal standard) 100 µg/mL, the supernatants were derivatized with TFAA and analyzed by GC–MS [2, 41].
(§2) To study pentedrone and methylone metabolic profiles, we set up a methodology for the identification of pentedrone and methylone phase I metabolites based on a GC–MS methodology developed by Araujo et al. and Uralets et al. with some adaptations. Briefly, samples from the metabolic assays (200 μL) were evaporated to dryness under nitrogen flow. Then, 50 µL of ethyl acetate and 50 µL of TFAA (derivatizing agent) were added to the dried residue. Incubation was performed at 65 °C for 15 min. After cooling to room temperature, the extract was dried under nitrogen flow. The residue obtained was dissolved in 100 μL of ethyl acetate, and 2 μL was injected into the GC–MS apparatus.
(§3) GC–MS analysis was performed with a 436-GC model (Bruker Daltonics, Billerica, MA, USA) coupled to an EVOQ triple quadrupole mass spectrometer (Bruker Daltonics) and a Bruker MS workstation software version 8.2. The chromatographic separation was accomplished using a fused silica capillary column (Rxi-5Sil MS; 30 m × 0.25 mm × 0.25 μm; Restek Corporation, U.S., Bellefonte, PA, USA). The carrier gas was helium C-60 (Gasin, Portugal), at a constant flow of 1 mL/min. Injections were performed in split mode, with a ratio of 1/20. The injector port was heated to 250 °C. The initial column temperature was 80 °C, followed by a temperature increase of 15 °C/min to 150 °C and 10 °C/min to 300 °C. The MS detector was operated in EI mode (70 eV). The temperature of the transfer line, manifold and EI were 280, 40, and 270 °C, respectively. Data acquisition was performed in full scan mode with a mass range between 50 and 800 m/z at a scan rate of 8 scans/s. The emission current was 40 µA. Ionization was maintained off during the first 1.5 min to avoid solvent overloading. Total separation run time was 20 min.
The analysis was initially performed in full scan mode. […] For that, specific metabolites of methylone and pentedrone, already identified in previous studies, were selected to postulate their mass fragmentation according to their chemical structures (Figure 11) for posterior analysis using the specific ions (m/z in SIM mode) to identify and confirm the metabolite peaks. In SIM mode the selected m/z ions were: IS—m/z 77, 105, 110, and 154; methylone—m/z 121, 149, 154, and 303; nor-methylone—m/z 121, 140, 149, 168, 289, and 260; dihydromethylone—m/z 121, 154, 247, 280, and 401; DHMC—m/z 154, 182, 209, 237, and 391; N-hydroxymethylone—m/z 121, 149, 170, 198, and 319; nor-pentedrone—m/z 77, 105, 126, 168, and 273; dihydropentedrone—m/z 140, 182, 203, 272, and 385; and pentedrone—m/z 77, 105, 140, and 182.

Another data set concerns 3D-HLCs. As to the kind of experiment: Metabolite formation in 3D-HLCs by GC-MS. It counts as in vitro ADME, human. The settings on record: 1 mM, 6 h. As to the method: as §1, §2, §3
The analysis was initially performed in full scan mode. […]

A further data set relates to SH-SY5Y cells. Also noted: method as in PMID 33609514. The following applies: cited from earlier work.
Data set [1] has as its system 3D-HLCs (human stem-cell-derived hepatocyte-like cells). Put plainly: Cell viability (CellTiter-Glo 3D) in 3D spheroid HLCs. Type of data set: cell-based. The following applies: 24 h; for concentrations at which cytotoxicity was observed: racemate, 3D-HLCs, compared to control cells. The procedure:
(§4) The hnMSCs isolated from human umbilical cord stroma were fully characterized as described elsewhere and expanded in Eagle’s minimum essential medium—alpha modification (α-MEM) supplemented with 10% (v/v) of fetal bovine serum (FBS; Gibco, Paisley, UK). For generating HLCs, a three-step differentiation protocol was applied to hnMSCs, as detailed previously. Briefly, hnMSCs were seeded at a density of 1.5 × 10^5 cells/cm^2 in a rat-tail collagen (0.2 mg/mL) coated surface plates. At day 17 (D17) of differentiation, cells were trypsinized and reinoculated in Iscove’s modified Dulbecco’s medium (IMDM) with 8 ng/mL oncostatin M (OSM; Peprotech, Rocky Hill, NJ, USA), 1 µM dexamethasone, 1% dimethyl sulfoxide (DMSO) and 1% insulin-transferrin-selenium solution (Gibco, Grand Island, NY, USA), 20 µM of 5-azacytidine, and 5% (v/v) FBS into (i) ultra-low attachment (ULA; VWR International, Radnor, PA, USA) plates (5 × 10^5 cells/mL) to obtain a 3D spheroid culture or (ii) 2D culture plates pre-coated with collagen (2 × 10^4 cells/cm^2). Medium was changed 24 h after inoculation to remove 5-azacytidine and FBS. Cells were maintained until D34 in this medium, which was replaced every 3 days.
(§5) The cytotoxicity of the racemic mixtures (0.25, 0.5, 1.0, 2.0, 3.0, 4.0, 6.0, 8.0, 10.0, and 20.0 mM) and enantiomers (0.5 and 1.0 mM) of pentedrone and methylone were evaluated in both 2D monolayer and 3D spheroid cultures of HLCs, maintained as described above with slight changes. Briefly, at D17 of differentiation, cells were seeded in 96-well plates in 200 μL of culture medium at a density of 6.4 × 10^3 cells/well and 1.6 × 10^4 cells/well in 2D and 3D cultures, respectively. At D34, HLCs cultured in 2D and 3D were exposed to the abovementioned racemic mixtures and enantiomers diluted in IMDM. Cell viability was measured upon 24 h of incubation with the compounds using the CellTiter-Glo® 3D Cell Viability Assay (Promega, Madison, WI, USA), according to manufacturer instructions. Five percent DMSO was used as negative control and IMDM as positive control. IC50 was calculated for the racemic mixtures using a nonlinear regression fit for the Log10 transformation of the concentration values by using GraphPad Prism version 7.0 (GraphPad Software, La Jolla, CA, USA). Three independent experiments were performed.

Another data set has as its system Caco-2 cell monolayer. Also on record: method as in PMID 32234388. The following applies: cited from earlier work.
Data set [2] is described as follows: Cell viability (CellTiter-Glo 3D) in 2D monolayer HLCs. It counts as cell-based, human. The settings on record: human; racemate, 2D-HLCs, 24 h exposure, 0-20.0 mM; read-out: EC50 (cytotoxicity). As to the method: as §4, §5
Data set [3] concerns 2D-HLCs (human stem-cell-derived hepatocyte-like cells). Described as above. Type of data set: cell-based. The settings on record: racemate, 24 h, 0-20.0 mM. As to the method: as §4, §5
Data set [4] in a line: Cell viability (CellTiter-Glo 3D) in 3D spheroid HLCs. It counts as cell-based, human. The following applies: human; racemate, 3D-HLCs, 24 h exposure, 0-20.0 mM; read-out: EC50 (cytotoxicity). As to the method: as §4, §5
In general terms: Cellular ATP, detected with luciferase, serves as a proxy for viable cell number.

The test system of data set [5] is human liver microsomes (HLM). As to the kind of experiment: Metabolism in ultra-pool human liver microsomes by GC-MS. Type of data set: in vitro ADME. The following applies: HLM 1 mg protein/mL, 50 µM enantiomer, 0-60 min. The procedure:
The metabolism of methylone and pentedrone was initially evaluated by incubation with ultra-pool human liver microsomes (HLM) at a final assay concentration of 1 mg protein/mL. All experiments were performed in duplicate. The incubation mixture with the HLM consisted of 1.3 mM NADP^+, 3.3 mM glucose-6-phosphate, 3.3 mM MgCl2, 0.4 IU/mL glucose-6-phosphate dehydrogenase, and 0.05 mM sodium citrate in 0.1 M phosphate buffer at pH 7.4. The incubation mixture with each drug was pre-incubated 10 min at 37 °C before the experiment was started with the addition of the HLM. All microsomes assays were incubated with 50 µM of each enantiomer in a final volume of 1 mL at 37 °C. At the time points 0, 5, 10, 20, 30, 40, 50, and 60 min, 100 µL aliquots of the incubations were quenched with 100 µL of ice-cold acetonitrile and methcathinone (internal standard) 100 µg/mL. The quenched solutions were centrifuged for 10 min at 4 °C and the supernatants were extracted with ethyl acetate after previous pH correction (pH = 11 for pentedrone and pH = 13 for methylone).
To study pentedrone and methylone metabolic profiles, we set up a methodology for the identification of pentedrone and methylone phase I metabolites based on a GC–MS methodology developed by Araujo et al. and Uralets et al. with some adaptations. […]
(Microsomes from liver hold many membrane-bound enzymes, among them those of drug oxidation.)

Data set [6] relates to primary rat hepatocytes (PRH). The following applies: read-out: EC50 (cytotoxic effects), racemic; cited from earlier work.
The conditions of data set [7]: cited from earlier work.
The subject of data set [8] is human liver microsomes (HLM). The following applies: cited from earlier work.

pEC50: −log10 of the molar value.

Turning to `CN[C@H](C)C(=O)c1ccc2c(c1)OCO2` [R-(+)-methylone], the “preferential metabolic route of the enantiomer” value (“preferential metabolic route” below) in the data set with 2D-HLCs was “preferentially metabolized by O-demethylation and N-hydroxylation”; in the data set with 3D-HLCs it was “preferentially metabolized by all metabolic routes, except for O-demethylation”. For the same molecule, the enantioselectivity in cytotoxicity entry in the data set with SH-SY5Y cells is “most cytotoxic”.
On to `CCC[C@@H](NC)C(=O)c1ccccc1` [R-(−)-pentedrone], for which the enantioselectivity in cytotoxicity entry in [1] (enantiomers at 1 mM, 3D cultures) is “most cytotoxic enantiomer”. Besides, the “preferential metabolic route” value with 2D-HLCs was “preferentially metabolized by all metabolic routes”; with 3D-HLCs it was “preferentially metabolized by β-keto reduction”. Further, the “enantioselectivity in intestinal absorption (permeability)” value in the data set on Caco-2 cell monolayer is “most permeable”.
For `CCC[C@H](NC)C(=O)c1ccccc1` [S-(+)-pentedrone], the enantioselectivity in cytotoxicity result in the data set with SH-SY5Y cells was “most cytotoxic”.
Regarding `CNC(C)C(=O)c1ccc2c(c1)OCO2` (centres unmarked) [methylone], the values for the EC50 at 24 h in data set [2] and in [4] were 4.8 mM and 5.2 mM, respectively. In [3], the “cytotoxicity compared to control cells” value is “significant cytotoxicity for all concentrations tested”. Further, the “concentrations at which cytotoxicity was observed” value in data set [1] is greater than 3000 µM. For the same molecule, the “metabolite with the highest formation” value in the data set with 2D-HLCs and with 3D-HLCs was “N-Hydroxymethylone” in each case. Besides, the “phase I metabolites identified” value in data set [5] is “N-hydroxymethylone, DHMC, dihydromethylone, and nor-methylone”. Further, in data set [6], the pEC50 was 2.80. In addition, the liver-to-blood ratio in data set [7] is on record as no more than 3. Besides, the “enzymes metabolizing the drug” value in [8] is “initially metabolized by CYP2D6, with minor contributions of CYP1A2, CYP2B6, and CYP2C19”.
In the case of `CCCC(NC)C(=O)c1ccccc1` (centres unmarked) [pentedrone], the EC50 at 24 h came out at 2.8 mM in data set [2] and 3.6 mM in [4]. The “cytotoxicity compared to control cells” value in [3] is given as “significant cytotoxicity for all concentrations tested”. Also, the “concentrations at which cytotoxicity was observed” value in data set [1] is “higher than 1.0 mM”. In addition, the “metabolite with the highest formation” value with 2D-HLCs and in the data set with 3D-HLCs was “dihydropentedrone” each time. Besides, the “phase I metabolites identified” value in [5] is “dihydropentedrone and nor-pentedrone”. In [6], the pEC50 was 3.15. The liver-to-blood ratio result in [7] is on record as “up to 11”.
Consider S-(−)-methylone, for which, in the data set on 2D-HLCs, the “preferential metabolic route” value is given as “preferentially metabolized via N-demethylation”. Moreover, the “enantioselectivity in intestinal absorption (permeability)” value in the data set with Caco-2 cell monolayer is given as “most permeable”.
